Measured values: the supplement of paper PMC12463676, “Small-molecule dissolution of stress granules by redox modulation benefits ALS models” (Nature Chemical Biology, 2025)

Experiments:
[1] = compound: NC(=O)CCCCC1CCSS1 [lipoamide]; assay: thermal stability z-score vs DMSO; higher = more thermally stabilized by treatment; conditions: HeLa, lipoamide concentration 100 µM
Description: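 Cellular thermal proteome profiling in HeLa cells. Cells were treated with 100 µM lipoamide for 1 h, with or without 1 mM arsenate for a further 1 h, then heated to ten temperatures (37-66.3 °C), and soluble protein was quantified by TMT mass spectrometry relative to 0.1% DMSO controls. The thermal stability score (sum of log2 fold changes minus the abundance score) was transformed to a z-score; mean of n = 3 experiments.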

[2] = compound: O=[As]([O-])(O)O.[K+] [potassium arsenate]; assay: as above; conditions: HeLa; arsenate concentration 1 mM
Description: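 Cellular thermal proteome profiling in HeLa cells treated with 1 mM arsenate for 1 h (DMSO pretreatment), heated to ten temperatures (37-66.3 °C). Soluble protein was quantified by TMT mass spectrometry relative to DMSO controls; the thermal stability score was transformed to a z-score; mean of n = 3 experiments.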

[3] = arsenate co-treatment: 1 mM arsenate 1 h
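Note: each temperature applied for 3 min, abundance score taken as mean log2 fold change at the two lowest temperatures, z-score obtained by mean subtraction and division by SD.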

Chain of UniProt O15031 (O15031 whole entry): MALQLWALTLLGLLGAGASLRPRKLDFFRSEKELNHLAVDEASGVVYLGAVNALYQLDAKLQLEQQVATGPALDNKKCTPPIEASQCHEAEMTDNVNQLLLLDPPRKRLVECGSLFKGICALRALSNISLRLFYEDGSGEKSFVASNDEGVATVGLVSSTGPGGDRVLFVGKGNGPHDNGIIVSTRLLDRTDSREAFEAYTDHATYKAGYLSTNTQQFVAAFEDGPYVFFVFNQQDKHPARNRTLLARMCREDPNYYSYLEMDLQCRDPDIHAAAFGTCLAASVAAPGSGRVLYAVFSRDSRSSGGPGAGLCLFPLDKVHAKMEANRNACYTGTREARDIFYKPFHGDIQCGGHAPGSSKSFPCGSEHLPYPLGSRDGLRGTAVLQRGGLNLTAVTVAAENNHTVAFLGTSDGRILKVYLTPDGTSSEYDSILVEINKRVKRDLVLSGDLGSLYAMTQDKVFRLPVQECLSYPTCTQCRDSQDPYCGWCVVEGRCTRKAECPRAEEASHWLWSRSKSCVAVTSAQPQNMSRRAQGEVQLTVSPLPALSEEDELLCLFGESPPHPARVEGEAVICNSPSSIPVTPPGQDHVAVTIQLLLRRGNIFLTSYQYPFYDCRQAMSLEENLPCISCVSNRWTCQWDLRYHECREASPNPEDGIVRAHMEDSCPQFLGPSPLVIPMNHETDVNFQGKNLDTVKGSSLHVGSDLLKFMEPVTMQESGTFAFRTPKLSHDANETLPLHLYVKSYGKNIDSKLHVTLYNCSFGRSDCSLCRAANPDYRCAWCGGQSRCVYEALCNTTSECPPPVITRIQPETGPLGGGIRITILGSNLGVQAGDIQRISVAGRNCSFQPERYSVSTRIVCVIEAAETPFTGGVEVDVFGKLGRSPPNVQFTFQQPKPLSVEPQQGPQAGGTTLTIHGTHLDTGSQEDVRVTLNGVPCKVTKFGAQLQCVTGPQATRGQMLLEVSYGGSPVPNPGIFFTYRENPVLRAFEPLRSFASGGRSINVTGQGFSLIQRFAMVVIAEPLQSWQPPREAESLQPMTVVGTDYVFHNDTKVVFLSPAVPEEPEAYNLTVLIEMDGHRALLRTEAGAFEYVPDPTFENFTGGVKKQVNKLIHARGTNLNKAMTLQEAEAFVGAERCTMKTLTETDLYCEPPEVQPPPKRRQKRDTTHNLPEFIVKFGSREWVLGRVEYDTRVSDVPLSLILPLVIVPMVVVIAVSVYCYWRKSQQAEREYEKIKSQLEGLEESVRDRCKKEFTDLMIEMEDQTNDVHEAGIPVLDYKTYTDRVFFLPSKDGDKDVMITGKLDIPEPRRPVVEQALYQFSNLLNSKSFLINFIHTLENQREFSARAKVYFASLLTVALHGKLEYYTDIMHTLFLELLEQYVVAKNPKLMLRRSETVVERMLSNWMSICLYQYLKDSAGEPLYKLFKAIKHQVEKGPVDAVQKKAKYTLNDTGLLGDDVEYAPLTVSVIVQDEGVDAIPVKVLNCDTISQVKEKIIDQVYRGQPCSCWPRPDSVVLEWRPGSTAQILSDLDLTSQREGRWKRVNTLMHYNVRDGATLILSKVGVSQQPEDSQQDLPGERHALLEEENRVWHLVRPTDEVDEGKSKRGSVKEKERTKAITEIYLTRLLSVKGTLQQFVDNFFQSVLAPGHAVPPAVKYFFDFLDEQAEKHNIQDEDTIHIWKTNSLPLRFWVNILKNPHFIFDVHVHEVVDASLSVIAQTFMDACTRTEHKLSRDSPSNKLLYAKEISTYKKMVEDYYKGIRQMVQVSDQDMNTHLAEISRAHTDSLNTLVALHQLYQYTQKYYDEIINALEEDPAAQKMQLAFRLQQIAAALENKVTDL
Chain of UniProt O15160 (O15160 whole entry): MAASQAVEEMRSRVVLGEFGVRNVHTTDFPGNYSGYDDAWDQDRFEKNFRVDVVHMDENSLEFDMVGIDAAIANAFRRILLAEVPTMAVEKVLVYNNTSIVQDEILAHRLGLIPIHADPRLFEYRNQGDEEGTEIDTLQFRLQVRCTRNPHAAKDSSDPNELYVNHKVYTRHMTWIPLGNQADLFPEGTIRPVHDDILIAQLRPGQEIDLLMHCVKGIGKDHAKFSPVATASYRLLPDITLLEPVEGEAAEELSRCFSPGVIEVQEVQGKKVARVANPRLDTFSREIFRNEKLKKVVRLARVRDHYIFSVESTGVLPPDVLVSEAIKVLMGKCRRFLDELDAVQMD
Chain of UniProt P28340 (P28340 whole entry): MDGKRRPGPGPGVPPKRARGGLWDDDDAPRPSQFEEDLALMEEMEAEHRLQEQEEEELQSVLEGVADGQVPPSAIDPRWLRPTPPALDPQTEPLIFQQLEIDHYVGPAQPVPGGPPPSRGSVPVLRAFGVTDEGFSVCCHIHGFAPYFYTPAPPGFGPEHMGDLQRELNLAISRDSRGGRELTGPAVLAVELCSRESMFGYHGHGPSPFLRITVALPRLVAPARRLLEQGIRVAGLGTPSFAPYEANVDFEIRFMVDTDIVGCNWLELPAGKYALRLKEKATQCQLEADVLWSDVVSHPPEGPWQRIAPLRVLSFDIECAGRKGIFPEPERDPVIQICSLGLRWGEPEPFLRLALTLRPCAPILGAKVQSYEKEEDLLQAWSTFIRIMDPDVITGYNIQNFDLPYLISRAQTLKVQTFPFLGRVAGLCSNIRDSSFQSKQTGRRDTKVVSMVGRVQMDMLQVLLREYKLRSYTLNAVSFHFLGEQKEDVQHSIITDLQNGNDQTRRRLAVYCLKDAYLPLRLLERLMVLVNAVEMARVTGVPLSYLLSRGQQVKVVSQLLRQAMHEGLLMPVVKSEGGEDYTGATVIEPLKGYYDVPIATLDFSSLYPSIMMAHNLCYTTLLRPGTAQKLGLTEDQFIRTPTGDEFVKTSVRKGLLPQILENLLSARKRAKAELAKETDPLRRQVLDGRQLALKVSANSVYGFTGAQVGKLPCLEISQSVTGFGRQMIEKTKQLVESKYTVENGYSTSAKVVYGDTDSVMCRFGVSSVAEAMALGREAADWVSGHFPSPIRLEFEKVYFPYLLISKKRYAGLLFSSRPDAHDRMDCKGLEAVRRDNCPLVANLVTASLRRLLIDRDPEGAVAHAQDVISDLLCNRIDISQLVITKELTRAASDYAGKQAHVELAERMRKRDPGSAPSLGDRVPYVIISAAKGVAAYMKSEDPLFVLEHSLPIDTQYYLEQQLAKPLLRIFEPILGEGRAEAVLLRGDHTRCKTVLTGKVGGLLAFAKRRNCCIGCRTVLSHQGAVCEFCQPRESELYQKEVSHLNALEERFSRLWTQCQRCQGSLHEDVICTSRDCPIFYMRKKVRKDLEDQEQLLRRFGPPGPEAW
Chain of UniProt Q92871 (Q92871 whole entry): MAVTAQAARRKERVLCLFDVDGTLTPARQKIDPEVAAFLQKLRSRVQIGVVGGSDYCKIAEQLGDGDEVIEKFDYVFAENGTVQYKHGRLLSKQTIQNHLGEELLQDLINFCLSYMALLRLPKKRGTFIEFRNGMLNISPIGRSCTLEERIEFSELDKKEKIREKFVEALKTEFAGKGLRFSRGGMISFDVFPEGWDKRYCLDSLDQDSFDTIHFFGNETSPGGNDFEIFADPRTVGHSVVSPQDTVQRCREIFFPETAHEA
Chain of UniProt P49005 (P49005 whole entry): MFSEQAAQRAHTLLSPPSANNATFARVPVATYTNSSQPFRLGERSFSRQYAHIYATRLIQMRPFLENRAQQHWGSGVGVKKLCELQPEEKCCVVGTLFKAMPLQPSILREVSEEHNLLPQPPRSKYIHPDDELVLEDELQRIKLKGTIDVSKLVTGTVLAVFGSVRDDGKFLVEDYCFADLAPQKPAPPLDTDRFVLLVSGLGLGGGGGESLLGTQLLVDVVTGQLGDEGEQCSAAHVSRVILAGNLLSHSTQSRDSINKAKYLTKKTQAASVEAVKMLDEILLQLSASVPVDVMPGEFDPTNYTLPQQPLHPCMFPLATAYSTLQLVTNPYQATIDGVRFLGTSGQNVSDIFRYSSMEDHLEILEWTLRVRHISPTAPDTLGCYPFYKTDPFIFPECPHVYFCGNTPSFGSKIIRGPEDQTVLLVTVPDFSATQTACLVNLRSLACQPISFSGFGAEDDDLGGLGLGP
Chain of UniProt Q8IYS1 (Q8IYS1 whole entry): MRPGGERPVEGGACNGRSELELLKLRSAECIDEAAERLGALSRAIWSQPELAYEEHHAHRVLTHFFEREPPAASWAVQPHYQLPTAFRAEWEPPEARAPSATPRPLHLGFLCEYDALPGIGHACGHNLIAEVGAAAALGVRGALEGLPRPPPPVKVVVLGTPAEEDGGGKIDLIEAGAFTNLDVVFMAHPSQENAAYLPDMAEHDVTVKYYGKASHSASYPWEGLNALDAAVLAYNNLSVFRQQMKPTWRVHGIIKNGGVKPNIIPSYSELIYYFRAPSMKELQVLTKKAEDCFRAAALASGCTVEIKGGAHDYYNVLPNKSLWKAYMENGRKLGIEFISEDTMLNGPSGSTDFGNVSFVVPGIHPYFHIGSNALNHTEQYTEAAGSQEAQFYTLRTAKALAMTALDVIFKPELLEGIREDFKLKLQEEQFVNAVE
Chain of UniProt Q9NVS9 (Q9NVS9 whole entry): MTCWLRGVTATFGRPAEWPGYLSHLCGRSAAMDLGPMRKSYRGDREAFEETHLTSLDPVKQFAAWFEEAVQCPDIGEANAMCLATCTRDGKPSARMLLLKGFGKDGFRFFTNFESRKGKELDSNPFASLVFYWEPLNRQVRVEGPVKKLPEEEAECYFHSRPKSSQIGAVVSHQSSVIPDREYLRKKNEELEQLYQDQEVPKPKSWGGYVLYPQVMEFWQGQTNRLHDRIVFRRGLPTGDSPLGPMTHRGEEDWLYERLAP
Chain of UniProt Q9NRX1 (Q9NRX1 whole entry): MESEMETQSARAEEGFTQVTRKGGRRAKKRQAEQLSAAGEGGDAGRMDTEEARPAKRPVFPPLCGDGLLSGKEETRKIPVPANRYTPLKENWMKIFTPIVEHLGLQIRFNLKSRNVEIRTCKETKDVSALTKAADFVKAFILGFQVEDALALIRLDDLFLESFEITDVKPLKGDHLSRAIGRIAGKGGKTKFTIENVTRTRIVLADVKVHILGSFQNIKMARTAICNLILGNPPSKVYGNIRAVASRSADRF

Target | thermal stability z-score [1, 3] | thermal stability z-score ([1]; arsenate co-treatment: none) | thermal stability z-score [2]
PLS3 (UniProt P13797) | 0.368 | 0.603 | -0.117
PLXNA1 (UniProt Q9UIW2) | 0.316 | -0.385 | -0.00413
PLXNA2 (UniProt O75051) | 0.937 | 1.3 | -0.219
PLXNB2 (UniProt O15031) | 0.453 | 0.113 | -0.338
PLXND1 (UniProt Q9Y4D7) | -0.194 | -0.712 | 0.534
PM20D2 (UniProt Q8IYS1) | 0.623 | 1.29 | 1.81
PMF1 (UniProt Q6P1K2) | 0.0314 | -0.0395 | 0.367
PML (UniProt P29590) | 1.95 | 0.537 | 5.01
PMM1 (UniProt Q92871) | -0.14 | 0.072 | 0.274
PMM2 (UniProt O15305) | -0.186 | 0.197 | 1.4
PMPCA (UniProt Q10713) | -0.137 | -0.112 | 0.0736
PMPCB (UniProt O75439) | 0.254 | 0.207 | 0.353
PMS1 (UniProt P54277) | -0.133 | -0.0146 | -0.486
PMS2 (UniProt P54278) | -0.198 | -0.101 | -0.0209
PMVK (UniProt Q15126) | -0.641 | 0.0911 | 0.0469
PNISR (UniProt Q8TF01) | 1.06 | 0.149 | -0.509
PNKD (UniProt Q8N490) | 0.175 | 0.758 | 0.929
PNKP (UniProt Q96T60) | -0.0218 | -0.0196 | -0.329
PNN (UniProt Q9H307) | 1.03 | 0.507 | -0.467
PNO1 (UniProt Q9NRX1) | 0.465 | 0.362 | -0.698
PNP (UniProt P00491) | 0.446 | 0.411 | 0.178
PNPLA4 (UniProt P41247) | 0.634 | 0.101 | 1.28
PNPLA6 (UniProt Q8IY17) | 0.758 | 0.548 | 0.246
PNPLA8 (UniProt Q9NP80) | 0.00209 | 0.148 | -0.332

Target | thermal stability z-score [1, 3] | thermal stability z-score ([1]; arsenate co-treatment: none) | thermal stability z-score [2]
PNPO (UniProt Q9NVS9) | 0.101 | 0.677 | -0.734
PNPT1 (UniProt Q8TCS8) | -0.261 | -0.271 | 0.418
PODXL (UniProt O00592) | 0.0978 | 0.132 | 0.395
POFUT1 (UniProt Q9H488) | -3.78 | -3.17 | 1.06
POFUT2 (UniProt Q9Y2G5) | -1.74 | -2.4 | -0.177
POGK (UniProt Q9P215) | 0.0568 | 0.107 | 0.0895
POGLUT1 (UniProt Q8NBL1) | -3.26 | -3.23 | 1.16
POGZ (UniProt Q7Z3K3) | -0.198 | 0.0592 | -0.422
POLA1 (UniProt P09884) | -0.387 | 0.167 | -0.306
POLA2 (UniProt Q14181) | -0.305 | -0.0588 | -0.183
POLB (UniProt P06746) | -0.0159 | -0.17 | -0.111
POLD1 (UniProt P28340) | 0.0404 | -0.203 | -0.1
POLD2 (UniProt P49005) | 0.196 | 0.117 | -0.0023
POLD3 (UniProt Q15054) | -0.0475 | 0.44 | -0.487
POLDIP2 (UniProt Q9Y2S7) | -0.119 | -0.241 | 0.18
POLDIP3 (UniProt Q9BY77) | -0.257 | 0.0404 | -1.86
POLE3 (UniProt Q9NRF9) | -0.405 | -0.285 | 0.375
POLE4 (UniProt Q9NR33) | 0.919 | 0.928 | -1.07
POLE (UniProt Q07864) | -0.0751 | -0.113 | -0.553
POLG2 (UniProt Q9UHN1) | 0.00241 | -0.266 | -0.833
POLG (UniProt P54098) | 0.0493 | 0.0533 | 0.0154
POLR1A (UniProt O95602) | 0.371 | -0.00373 | -2.59
POLR1B (UniProt Q9H9Y6) | 0.138 | -0.017 | -1.91
POLR1C (UniProt O15160) | 0.267 | 0.621 | -1.08

Target | thermal stability z-score [1, 3] | thermal stability z-score ([1]; arsenate co-treatment: none) | thermal stability z-score [2]
POLR1D | -0.0835 | -0.377 | -1.73
POLR1E (UniProt Q9GZS1) | 0.144 | 0.0221 | -0.0491
POLR2A (UniProt P24928) | 0.89 | 0.82 | -0.684
POLR2B (UniProt P30876) | 0.77 | 0.769 | 0.205
POLR2C (UniProt P19387) | 0.705 | 1.15 | 0.481
POLR2D (UniProt O15514) | 1.21 | 0.628 | -0.735
POLR2E (UniProt P19388) | 0.281 | 0.459 | -1.34
POLR2G (UniProt P62487) | 0.343 | 0.681 | -1.1
POLR2H (UniProt P52434) | 0.98 | 1.03 | -0.373
POLR2I (UniProt P36954) | 1.79 | 0.367 | -2.41
POLR2L (UniProt P62875) | 1.27 | 0.782 | 0.335
POLR3A (UniProt O14802) | 0.0126 | -0.887 | -1.69
POLR3B (UniProt Q9NW08) | 0.417 | 0.0689 | 0.309
POLR3C (UniProt Q9BUI4) | 0.213 | 0.0462 | -0.411
POLR3D (UniProt P05423) | 0.483 | -0.501 | -1.56
POLR3E (UniProt Q9NVU0) | 0.0246 | 0.108 | -0.126
POLR3F (UniProt Q9H1D9) | -0.186 | -0.242 | -1.32
POLR3G (UniProt O15318) | -0.603 | -0.505 | -0.356
POLR3K (UniProt Q9Y2Y1) | 0.542 | 0.567 | -3.08
POLRMT (UniProt O00411) | 0.314 | -0.744 | -0.331
POM121C (UniProt A8CG34) | 1.24 | -0.678 | 1.38
POMGNT1 (UniProt Q8WZA1) | -0.429 | 0.0715 | -0.0541
POMK (UniProt Q9H5K3) | 0.213 | -0.243 | -0.285
